Experimental data reported in ChEMBL document CHEMBL3885881, “DrugMatrix”.

Species on record: Rattus norvegicus
Assay: DrugMatrix - Regimen: Daily Repeat
Assay type: toxicity, organism-based, Sprague-Dawley
Set-up: regimen Daily Repeat, gender Male, age 6-8 weeks
Details: in vivo, po, route oral GAVAGE, vehicle .5 % CMC; for ABSOLUTE BASOPHIL / ABSOLUTE EOSINOPHIL / ABSOLUTE LYMPHOCYTE / ABSOLUTE MONOCYTE / ABSOLUTE SEGMENTED NEUTROPHIL / BASOPHIL / EOSINOPHIL / ERYTHROCYTE COUNT / HEMATOCRIT / HEMOGLOBIN / LEUKOCYTE COUNT / LYMPHOCYTE / MEAN CORPUSCULAR HEMOGLOBIN / MEAN CORPUSCULAR HEMOGLOBIN CONCENTRATION / MEAN CORPUSCULAR VOLUME / MONOCYTE / NEUTROPHIL / NUCLEATED RED BLOOD CELLS / PLATELET COUNT: tissue Blood; for ALANINE AMINOTRANSFERASE / ALBUMIN / ALKALINE PHOSPHATASE / ASPARTATE AMINOTRANSFERASE / BLOOD UREA NITROGEN / CARBON DIOXIDE / CHLORIDE / CHOLESTEROL / CREATINE PHOSPHOKINASE / CREATININE / GLUCOSE / LACTATE DEHYDROGENASE / LIPASE / PHOSPHORUS / POTASSIUM / SODIUM / TOTAL BILIRUBIN / TOTAL PROTEIN / URIC ACID: tissue Plasma
[1] = 0 mg/kg, 72 h, dose level Control, time 3 day
[2] = 0 mg/kg, 120 h, dose level Control, time 5 day
[3] = 10 mg/kg, 72 h, dose level Low, time 3 day

## COc1c(C)c2c(c(O)c1C/C=C(\C)CCC(=O)OCCN1CCOCC1)C(=O)OC2 [MYCOPHENOLATE MOFETIL]
[1]
  ABSOLUTE BASOPHIL: 0 CELLS/uL
  ABSOLUTE EOSINOPHIL: 0 CELLS/uL
  ABSOLUTE LYMPHOCYTE: 12191.17 CELLS/uL
  ABSOLUTE MONOCYTE: 183.17 CELLS/uL
  ABSOLUTE SEGMENTED NEUTROPHIL: 1192.33 CELLS/uL
  BASOPHIL: 0%
  EOSINOPHIL: 0%
  ERYTHROCYTE COUNT: 5.51 x10E6/uL
  HEMATOCRIT: 35.45%
  HEMOGLOBIN: 13.82 G/DL
  LEUKOCYTE COUNT: 13.57 x10E3/uL
  LYMPHOCYTE: 89.83%
  MEAN CORPUSCULAR HEMOGLOBIN: 25.1 pg
  MEAN CORPUSCULAR HEMOGLOBIN CONCENTRATION: 38.98 G/DL
  MEAN CORPUSCULAR VOLUME: 64.42 fL
  MONOCYTE: 1.33%
  NEUTROPHIL: 8.83%
  NUCLEATED RED BLOOD CELLS: 0 /100WBC
  PLATELET COUNT: 1118.17 x10E3/uL
  ALANINE AMINOTRANSFERASE: 55 u/L
  ALBUMIN: 4.15 G/DL
  ALKALINE PHOSPHATASE: 449.5 u/L
  ASPARTATE AMINOTRANSFERASE: 112.83 u/L
  BLOOD UREA NITROGEN: 17.33 mg/dL
  CARBON DIOXIDE: 29.5 mmol/L
  CHLORIDE: 101 MEQ/L
  CHOLESTEROL: 70 mg/dL
  CREATINE PHOSPHOKINASE: 1325.83 u/L
  CREATININE: 0.18 mg/dL
  GLUCOSE: 171.5 mg/dL
  LACTATE DEHYDROGENASE: 386 u/L
  LIPASE: 10 u/L
  PHOSPHORUS: 11.57 mg/dL
  POTASSIUM: 6.21 MEQ/L
  SODIUM: 141.65 MEQ/L
  TOTAL BILIRUBIN: 0.15 mg/dL
  TOTAL PROTEIN: 5.75 G/DL
  URIC ACID: 1.28 mg/dL
[2]
  ABSOLUTE BASOPHIL: 0 CELLS/uL
  ABSOLUTE EOSINOPHIL: 138.17 CELLS/uL
  ABSOLUTE LYMPHOCYTE: 13283.17 CELLS/uL
  ABSOLUTE MONOCYTE: 303.83 CELLS/uL
  ABSOLUTE SEGMENTED NEUTROPHIL: 1308.17 CELLS/uL
  BASOPHIL: 0%
  EOSINOPHIL: 1%
  ERYTHROCYTE COUNT: 5.32 x10E6/uL
  HEMATOCRIT: 33.8%
  HEMOGLOBIN: 13.63 G/DL
  LEUKOCYTE COUNT: 15.03 x10E3/uL
  LYMPHOCYTE: 88.33%
  MEAN CORPUSCULAR HEMOGLOBIN: 25.68 pg
  MEAN CORPUSCULAR HEMOGLOBIN CONCENTRATION: 40.35 G/DL
  MEAN CORPUSCULAR VOLUME: 63.67 fL
  MONOCYTE: 1.83%
  NEUTROPHIL: 8.83%
  NUCLEATED RED BLOOD CELLS: 0 /100WBC
  PLATELET COUNT: 1097.5 x10E3/uL
  ALANINE AMINOTRANSFERASE: 54.5 u/L
  ALBUMIN: 4.27 G/DL
  ALKALINE PHOSPHATASE: 337 u/L
  ASPARTATE AMINOTRANSFERASE: 94.67 u/L
  BLOOD UREA NITROGEN: 17 mg/dL
  CARBON DIOXIDE: 28.33 mmol/L
  CHLORIDE: 101.5 MEQ/L
  CHOLESTEROL: 71.33 mg/dL
  CREATINE PHOSPHOKINASE: 628.17 u/L
  CREATININE: 0.19 mg/dL
  GLUCOSE: 177.83 mg/dL
  LACTATE DEHYDROGENASE: 500.5 u/L
  LIPASE: 9.5 u/L
  PHOSPHORUS: 12.3 mg/dL
  POTASSIUM: 5.63 MEQ/L
  SODIUM: 143.03 MEQ/L
  TOTAL BILIRUBIN: 0.2 mg/dL
  TOTAL PROTEIN: 6.02 G/DL
  URIC ACID: 1.5 mg/dL
[3]
  ABSOLUTE BASOPHIL: 0 CELLS/uL
  ABSOLUTE EOSINOPHIL: 76.67 CELLS/uL
  ABSOLUTE LYMPHOCYTE: 12148 CELLS/uL
  ABSOLUTE MONOCYTE: 38.33 CELLS/uL
  ABSOLUTE SEGMENTED NEUTROPHIL: 870.33 CELLS/uL
  BASOPHIL: 0%
  EOSINOPHIL: 0.67%
  ERYTHROCYTE COUNT: 5.1 x10E6/uL
  HEMATOCRIT: 32.07%
  HEMOGLOBIN: 13.3 G/DL
  LEUKOCYTE COUNT: 13.13 x10E3/uL
  LYMPHOCYTE: 92%
  MEAN CORPUSCULAR HEMOGLOBIN: 26.1 pg
  MEAN CORPUSCULAR HEMOGLOBIN CONCENTRATION: 41.47 G/DL
  MEAN CORPUSCULAR VOLUME: 62.87 fL
  MONOCYTE: 0.33%
  NEUTROPHIL: 7%
  NUCLEATED RED BLOOD CELLS: 0 /100WBC
  PLATELET COUNT: 1283 x10E3/uL
  ALANINE AMINOTRANSFERASE: 58 u/L
  ALBUMIN: 4.13 G/DL
  ALKALINE PHOSPHATASE: 363.33 u/L
  ASPARTATE AMINOTRANSFERASE: 110.33 u/L
  BLOOD UREA NITROGEN: 16.33 mg/dL
  CARBON DIOXIDE: 26.33 mmol/L
  CHLORIDE: 102.67 MEQ/L
  CHOLESTEROL: 70.67 mg/dL
  CREATINE PHOSPHOKINASE: 1302.67 u/L
  CREATININE: 0.14 mg/dL
  GLUCOSE: 164 mg/dL
  LACTATE DEHYDROGENASE: 334.67 u/L
  LIPASE: 9.67 u/L
  PHOSPHORUS: 13.07 mg/dL
  POTASSIUM: 5.93 MEQ/L
  SODIUM: 144.23 MEQ/L
  TOTAL BILIRUBIN: 0.1 mg/dL
  TOTAL PROTEIN: 5.53 G/DL
  URIC ACID: 1.57 mg/dL
